# Laboratory results from patent US20090143279A1 (priority 2007, published 2009).
# Where “and” joins values, the source holds several entries; their conditions need not be identical. Equal values may be shown once. Read-outs that look alike come from different tables or passages of the source. Where a SMILES comes first, the peptide text is derived from it.
# How the values were obtained:
# reactive oxygen species = type: cell-based, mouse
# [1] = test system: mitochondrial membrane potential; type: cell-based, mouse
# cytochrome c = type: cell-based, mouse
# [2] = test system: cellular dehydrogenase activity
# [3] = Table 4, C2C12 myotubes, 48 h, JC-1, composite Z-score
# [4] = Table 4, C2C12 myotubes, 48 h, composite Z-score
# [5] = composite Z-score vs DMSO, Conc 20 μM
# [6] = composite Z-score vs mock-treated (DMSO) wells, concentration of each compound in μM
# cytochrome c, sequence (P62897 whole entry): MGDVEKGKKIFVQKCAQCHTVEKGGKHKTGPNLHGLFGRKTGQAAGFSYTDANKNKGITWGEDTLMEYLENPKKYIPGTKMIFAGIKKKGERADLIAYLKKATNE
molecule,measurement,setting,value
CC1(C)S[C@@H]2[C@H](NC(=O)[C@H](N)c3ccc(O)cc3)C(=O)N2[C@H]1C(=O)O [amoxicillin],ROS,reactive oxygen species,1.061
CC([C@H](O)c1ccccc1)N(C)C (stereo partly drawn) [N-methyl (−)ephedrine],ΔΨm,[1],−0.068
CC(=O)[C@H]1CC[C@H]2[C@@H]3CC=C4C[C@@H](O)CC[C@]4(C)[C@H]3CC[C@]12C [pregnenolone],ΔΨm,[1],0.542
pyrantel tartrate,ΔΨm,[1],−1.028
same,ROS,reactive oxygen species,1.579
same,cyt c,cytochrome c,−0.306
same,Viability,C2C12 myotubes,0.330
same,MTT,[2],−1.214
CC1=C(CC(=O)O)c2cc(F)ccc2/C1=C\c1ccc([S+](C)[O-])cc1 (centres unmarked) [sulindac],Viability,C2C12 myotubes,0.777
"CC[C@H](C)C(=O)O[C@H]1C[C@@H](C)C=C2C=C[C@H](C)[C@H](CC[C@@H]3C[C@@H](O)CC(=O)O3)[C@H]21 [lovastatin, reference compound]",cyt c (composite Z-score vs DMSO),cytochrome c,−1.628
same,MTT activity,[2],strong decreases
C[C@]12C=CC(=O)C=C1CC[C@@H]1[C@@H]2[C@@H](O)C[C@@]2(C)[C@H]1CC[C@]2(O)C(=O)CO [prednisolone],ROS,reactive oxygen species,0.248
N[C@@H](C(=O)N[C@@H]1C(=O)N2C(C(=O)O)=C(Cl)CC[C@H]12)c1ccccc1 [loracarbef],ΔΨm,[1],−0.229
same,ROS,reactive oxygen species,−0.236
same,cyt c,cytochrome c,0.622
same,Viability,C2C12 myotubes,0.317
same,MTT,[2],−0.158
CC(C)NC[C@@H](O)COc1ccc(CC(N)=O)cc1 [(R)-(+)-atenolol],ΔΨm,[1],−0.573
same,ROS,reactive oxygen species,1.639
same,cyt c,cytochrome c,−0.033
same,Viability,C2C12 myotubes,−0.846
same,MTT,[2],−1.053
"N#CC(C#N)=NNc1cccc(Cl)c1 [CCCP, carbonyl cyanide m-chlorophenylhydrazone, reference compound]",mitochondrial membrane potential,"[1]; assay control, FIG. 3-3",depolarization
methyl benzethonium chloride,ΔΨm,[1],0.480
same,ROS,reactive oxygen species,−1.501
same,Viability,C2C12 myotubes,−2.690
same,MTT,[2],−4.304
(S)-(−)-atenolol,ΔΨm,[1],0.396
same,ROS,reactive oxygen species,−0.554
same,cyt c,cytochrome c,0.030
same,Viability,C2C12 myotubes,0.012
same,MTT,[2],−0.552
CC(C)[N+]1(C)[C@@H]2CC[C@H]1C[C@@H](OC(=O)C(CO)c1ccccc1)C2 (some centres unmarked) [ipratropium],ROS,reactive oxygen species,1.245
"Oc1ccc([C@H]2Oc3cc(O)cc(O)c3C[C@H]2O)cc1 [epiafzelechin(2r,3r)(−), reference compound]",ΔΨm,[1]; [3],−3.118
same,ROS,reactive oxygen species; [4],1.019
same,Viability,C2C12 myotubes; [4],−0.719
same,MTT,[2]; [4],−0.486
CN(C)CCCN1c2ccccc2CCc2ccc(Cl)cc21 [clomipramine],ROS,reactive oxygen species,0.466
C[C@@H]1[C@H](O)[C@@H](C)/C=C/C=C/C=C/C=C/C=C/C=C/C=C/[C@H](O[C@@H]2O[C@H](C)[C@@H](O)[C@H](N)[C@@H]2O)C[C@@H]2O[C@](O)(C[C@@H](O)C[C@@H](O)[C@H](O)CC[C@@H](O)C[C@@H](O)CC(=O)O[C@H]1C)C[C@H](O)[C@H]2C(=O)O [amphotericin B],ΔΨm,[1],0.308
same,ROS,reactive oxygen species,0.005
same,cyt c,cytochrome c,−0.982
same,Viability,C2C12 myotubes,1.210
same,MTT,[2],−0.790
COC1=CC(=O)C(O)=C/C1=C\C=C\c1ccccc1 [obtusaquinone],ΔΨm,[1]; [5],−3.829
same,ROS,reactive oxygen species; [5],−1.119
same,cyt c,cytochrome c; [5],−5.381
same,Viability,C2C12 myotubes; [5],−4.658
same,MTT,[2]; [5],−6.409
Cc1cc(C2CCCCC2)n(O)c(=O)c1.NCCO [ciclopirox ethanolamine],ΔΨm,[1],2.994
same,ROS,reactive oxygen species,−1.968
same,cyt c,cytochrome c,−0.351
same,Viability,C2C12 myotubes,0.101
same,MTT,[2],−2.239
"COc1cc2c(cc1OC)[C@@H]1C(=O)c3ccc4c(c3O[C@@H]1CO2)C=CC(C)(C)O4 [deguelin(−), reference compound]",ΔΨm,[1]; [3],1.451
same,ROS,reactive oxygen species; [4],0.426
same,Viability,C2C12 myotubes; [4],−0.940
same,MTT,[2]; [4],−4.052
amyleine,MTT,[2],−0.719
CCC1(c2ccc(N)cc2)CCC(=O)NC1=O (centres unmarked) [para-aminoglutethimide],ΔΨm,[1],−0.416
Clc1ccccc1C(c1ccccc1)(c1ccccc1)n1ccnc1 [clotrimazole],ROS,reactive oxygen species,2.521
same,Viability,C2C12 myotubes,0.099
OCCN(CCO)c1nc(N2CCCCC2)c2nc(N(CCO)CCO)nc(N3CCCCC3)c2n1 [dipyridamole],ΔΨm,[1],0.298 and 0.474
same,cyt c,cytochrome c,0.377 and 0.276
same,Viability,C2C12 myotubes,2.069 and 1.042
trisodium ethylenediamine tetracetate,ΔΨm,[1],0.474
same,ROS,reactive oxygen species,−0.436
same,Viability,C2C12 myotubes,−0.946
same,MTT,[2],−1.123
C[C@@]1(O)CCOC(=O)C1 (racemic) [mevalonic-DL-acid lactone],ΔΨm,[1],−0.183
same,cyt c,cytochrome c,−0.252
"CC(C)n1c(/C=C/C(O)CC(O)CC(=O)O)c(-c2ccc(F)cc2)c2ccccc21 (centres unmarked) [fluvastatin, reference compound]",MTT activity,"[2]; screen, FIG. 9a, in words",strong decreases
"COc1ccc([C@H]2COc3c(ccc(O)c3OC)C2)c(OC)c1O [duartin(−), reference compound]",ROS,reactive oxygen species; [4],0.900
"CN[C@@H]1C[C@H]2O[C@@](C)([C@@H]1OC)n1c3ccccc3c3c4c(c5c6ccccc6n2c5c31)C(=O)NC4 [staurosporine, reference compound]",cell death (calcein),"C2C12 myotubes; assay control, FIG. 3-1",cell death in a dose dependent manner
Cc1cc(NS(=O)(=O)c2ccc(N)cc2)no1 [sulfamethoxazole],ROS,reactive oxygen species,1.114
CC1(C)S[C@@H]2[C@H](NC(=O)Cc3ccccc3)C(=O)N2[C@H]1C(=O)O.CC1(C)S[C@@H]2[C@H](NC(=O)Cc3ccccc3)C(=O)N2[C@H]1C(=O)O.c1ccc(CNCCNCc2ccccc2)cc1 [benzathine benzylpenicillin],ΔΨm,[1],0.729
CCN(CC)C(=O)N[C@H]1C[C@@H]2c3cccc4[nH]cc(c34)C[C@H]2N(C)C1 [S(+)-terguride],ΔΨm,[1],−0.585
(−)-MK 801,ΔΨm,[1],−0.786
CC(C(=O)O)c1cccc(C(=O)c2ccccc2)c1 (centres unmarked) [ketoprofen],ROS,reactive oxygen species,0.545
C[C@]12CC[C@@H](O)C[C@H]1CC[C@@H]1[C@@H]2CC[C@]2(C)C(=O)CC[C@@H]12 [3-alpha-hydroxy-5-beta-androstan-17-one],ΔΨm,[1],−1.010
same,ROS,reactive oxygen species,1.400
same,cyt c,cytochrome c,0.285
same,MTT,[2],−1.534
"COC(=O)Nc1nc2ccc(SC(C)C)cc2[nH]1 [methiazole, reference compound]",ΔΨm,[1]; [3],0.040
same,ROS,reactive oxygen species; [4],−2.515
same,Viability,C2C12 myotubes; [4],−0.683
same,MTT,[2]; [4],−0.654
C[C@@H]1C[C@H]2[C@@H]3CCC4=CC(=O)C=C[C@]4(C)[C@@]3(F)[C@@H](O)C[C@]2(C)[C@@]1(O)C(=O)CO [dexamethasone],ΔΨm,[1],0.240 and 0.273
COc1cc(Cc2cnc(N)nc2N)cc(OC)c1OC [trimethoprim],ROS,reactive oxygen species,1.375
O=C([O-])c1ccccc1O.[Na+] [sodium salicylate],cyt c,cytochrome c,0.607
COc1ccc(-c2cc(C(F)F)nn2-c2ccc(S(N)(=O)=O)cc2)cc1F [deracoxib],cyt c,cytochrome c; [6],0.350
CN(C)CCCSC(=N)N [dimaprit],cyt c (composite Z-score),cytochrome c,−0.184
"C=C(C)[C@H]1Cc2c(ccc3c2O[C@@H]2COc4cc(OC)c(OC)cc4[C@@H]2C3=O)O1 [rotenone, reference compound]",MTT activity,"[2]; assay control, FIG. 3-2",inhibited
CC(C)=CCC[C@@H](C)[C@H]1CC[C@@]2(C)C3=C(CC[C@]12C)[C@@]1(C)CC[C@H](O)C(C)(C)[C@@H]1CC3 [lanosterol],cyt c,cytochrome c; [6],0.383
CN(C)CCC=C1c2ccccc2COc2ccccc21 [doxepin],cyt c,cytochrome c,1.151
same,cyt c (composite Z-score vs DMSO),cytochrome c,−0.095
CS(=O)(=O)Nc1ccc([N+](=O)[O-])cc1Oc1ccccc1 [nimesulide],ROS,reactive oxygen species,1.468 and 1.174
Cc1cccc(C)c1OCC(C)N (centres unmarked) [mexiletine],cyt c,cytochrome c,1.114
CO[C@H]1/C=C/O[C@@]2(C)Oc3c(C)c(O)c4c(O)c(c5c(nc6cc(C)ccn65)c4c3C2=O)NC(=O)/C(C)=C\C=C\[C@H](C)[C@H](O)[C@@H](C)[C@@H](O)[C@@H](C)[C@H](OC(C)=O)[C@@H]1C [rifaximin],cyt c,cytochrome c; [6],−0.471
NC(=O)c1ncn([C@@H]2O[C@H](CO)[C@@H](O)[C@H]2O)n1 [ribavirin],cyt c,cytochrome c,−0.336
CCCCc1cc2ccccc2c(OCCN(C)C)n1 [dimethisoquin],cyt c,cytochrome c; [6],−1.006
CN(C)C(=N)N=C(N)N [metformin],cyt c (composite Z-score vs DMSO),cytochrome c,0.597
CC1CS(=O)(=O)CCN1/N=C/c1ccc([N+](=O)[O-])o1 (centres unmarked) [nifurtimox],cyt c,cytochrome c,0.004
"CCC(C)(C)C(=O)O[C@H]1C[C@@H](C)C=C2C=C[C@H](C)[C@H](CC[C@@H]3C[C@@H](O)CC(=O)O3)[C@H]21 [simvastatin, reference compound]",MTT activity,"[2]; screen, FIG. 9a, in words",strong decreases
CNc1ccccc1C(=O)O [N-methylanthranilic acid],cyt c,cytochrome c,0.299
O=C1C(O)=C([C@H]2CC[C@H](c3ccc(Cl)cc3)CC2)C(=O)c2ccccc21 [atovaquone],cyt c,cytochrome c; [6],−0.124
O=c1c(-c2ccc(O)cc2)coc2cc(O)cc(O)c12 [genistein],cyt c (composite Z-score vs DMSO),cytochrome c,0.295
CC1(C)CC[C@]2(C(=O)O)CC[C@]3(C)C(=CC[C@@H]4[C@@]5(C)CC[C@H](O)C(C)(C)[C@@H]5CC[C@]43C)[C@@H]2C1 [oleanolic acid],cyt c,cytochrome c,0.866
Oc1ccc(O)cc1 [hydroquinone],cyt c (composite Z-score vs DMSO),cytochrome c,−4.999
CC[C@H]1CN2CC[C@H]1C[C@H]2[C@H](O)c1ccnc2ccc(OC)cc12 [hydroquinine],cyt c,cytochrome c; [6],0.004
CC(C)[C@H](N)C(=O)N[C@@H](Cc1c[nH]c2ccccc12)C(=O)O [valyltryptophan] (H-Val-Trp-OH),cyt c,cytochrome c; [6],−0.626
